According to patent US20250066338A1, “CERTAIN 3-AZABICYCLO[3.1.0]HEXANES AS GLP-1 RECEPTOR MODULATORS” (AstraZeneca AB, priority 2021, published 2025):

Legend:
[1] = target: human phosphodiesterase-3A (Homo sapiens (Human), UniProt Q14432); test: PDE3 Assay; assay type: biochemical; conditions: human recombinant enzyme expressed in Sf9 cells; formation of 5'AMP from cAMP
Procedure: Evaluation of the effects of compounds on the activity of the human phosphodiesterase-3A is quantified by measuring the formation of 5′AMP from cAMP using a human recombinant enzyme expressed in a clonal isolate of Spodoptera frugiperda cells (Sf9) cells.
The test compound, reference compound or water (control) are added to a buffer containing 40 mM tris(hydroxymethyl)aminomethane (Tris)/HCl (pH 7.4) and 8 mM MgCl2, 450 nMcAMP and 0.25 μCi [^3H]cAMP.
Thereafter, the reaction is initiated by addition of the enzyme (about 1 U) and the mixture is incubated for 20 min at 22° C.
For basal control measurements, the enzyme is omitted from the reaction mixture. Following incubation SPA beads are added. After 30 min at 22° C. under shaking, the amount of [^3H]^+ 5′AMP is quantified with a scintillation counter (Topcount, Packard).
The results are expressed as a percent inhibition of the control enzyme activity. The standard inhibitory reference compound is milrinone (CAS number 78415-72-2), which is tested in each experiment at several concentrations to obtain an inhibition curve from which its IC50 value is calculated.

[2] = target: GLP-1R in EndoC-βH1 cells (Homo sapiens (Human), UniProt P43220); test: EndoC cAMP Accumulation Assay; assay type: cell-based; conditions: EndoC-βH1 human pancreatic beta cell line; HTRF cAMP accumulation
From the text: EndoC cAMP Accumulation Assay
A HTRF cAMP assay (cAMP Gs dynamic kit; CisoBio Cat #62AM4PEJ) was used to identify agonists of GLP-1R in a pancreatic insulinoma cell line (EndoC-βH1). […] EndoC-βH1 cells have detectable GLP-1R messenger ribonucleic acid (mRNA) as detected by quantitative polymerase chain reaction (qPCR). […] The EndoC-βH1 cell line is a valid model of human beta cells and applicable for screenings to identify novel drug target candidates (Mol. Metab., 2018, 8, 144-157). CisBio HTRF cAMP kits are based on a competitive immunoassay using cryptate-labelled anti-cAMP antibody and d2-labeled cAMP. The detection kit is intended for the direct quantitative determination of cAMP. The specific signal (i.e. energy transfer) is inversely proportional to the concentration of cAMP in the standard or sample. Test compounds (10 mM in DMSO) were diluted into assay buffer (HBSS (Sigma #H8264) supplemented with 25 mM HEPES (Gibco #15630, pH 7.4), 0.1% BSA (Sigma #A3059) and 0.5 mM IBMX (Sigma #17018) included fresh on the day of the assay) into 96 well U-bottom plates (Greiner #650201). Diluted compounds were transferred to ECHO source polypropylene plates (Labcyte #P-05525) and dose response curves were dispensed acoustically using ECHO 550 into black shallow-well u-bottom 384-well HTRF Assay Plates (Corning 4514).
Cryovials of EndoC-H1 (supplied at 1×10e^7 cells/vial) were used directly for screening. The cryovials and were removed from N2 (1) and thawed rapidly in a 37° C. water bath. The cells were resuspended in assay buffer and centrifuged at 300 g for 5 min. Cells were resuspended in assay buffer at the appropriate concentration, typically at 12e5 cells per mL (3000 cells per well, dependent on cell batch) and 2.5 μL diluted cells were added to all wells of destination plate by Multidrop combi reagent dispenser (Thermofisher). The plates were incubated at rt for 30 min. The assay was stopped by adding 2.5 μL anti-cAMP cryptate solution to all wells and 2.5 μL cAMP-d2 solution (both diluted 1:20 in lysis buffer) to columns 1-22 by Combi drop. A volume of 2.5 μL cAMP-d2 solution was added to wells E23 to P24 and 2.5 μL lysis buffer added to wells A23 to D24 by multichannel pipette. The plates were incubated at rt for 1 h and read on an Envision plate reader using excitation wavelength of 320 nm and emission of […] and 660 nm.
Raw data from Envision is converted to % DeltaF according to the manufacturer's instructions. Dose response curves are analysed via 4-Parameter Logistical Analysis and assay plate Z′ values obtained. Samples are graphed as percentage (%) activation plots compared to GIP (1-42, Bachem H-5645) with assay window defined by negative control as basal cell cAMP levels and positive control are defined by maximum GIP (82.5 nM) signal. GLP1 (7-36 amide, Bachem H-6795) dose response curve was included on all plates.

human GLP-1R receptor = human GLP-1R receptor (Homo sapiens (Human), UniProt P43220, L260F); test: CHOK1 GLP-1R cAMP Assay; assay type: cell-based; conditions: CHO-K1 cell line stably expressing human GLP-1R; HTRF cAMP; agonist activity
Procedure: A cell line stably expressing the human GLP-1R receptor (NM 002062.5, including the naturally-occurring variant Leu260Phe) in a CHO-K1 (ATCC® CCL-61™) was used for assay.
GLP-1 receptor mediated agonist activity was determined in a cell based assay measuring cyclic adenosine monophosphate (cAMP) levels in cells using Homogeneous Time-Resolved Fluorescence (HTRF) cAMP detection kit (CisBio catalog #62AM4PEC, cAMP Gs Dynamic range kit). The cAMP detection method is based on a competitive immunoassay, in which cAMP produced by the cells and cAMP labeled with the dye d2 compete for binding to a Europium-Cryptate-labeled anti-cAMP antibody. The specific HTRF signal is inversely proportional to the concentration of cAMP.
Compounds were added to individual well in 384 well-assay plates (Greiner #784076) using an Echo (LabCyte) dispenser from 10 mM stocks. Varying concentration of compounds were added to wells, and DMSO was used to normalize each well to a volume of 100 nL. A dose response curve of GLP1(7-36)NH2 (Bachem H-6795) was included in each run. 5 μL of cAMP concentration response standards are applied in specified wells in the assay plates. Cryo-preserved cells are thawed and resuspended in assay buffer pre-heated to 37° C. (20 mM HEPES pH 7.4, lx Hank's Balanced Salt Solution (HBSS, Life Technologies #14065) supplemented with 0.1% (w/v) bovine serum albumin (Sigma, A-7030). Cells were centrifuged at 250*g for 5 min at rt, and resuspended in room tempered assay buffer to a final density of 0.16*10^6 cell/mL, to deliver 800 cells/well. 5 μL of assay buffer with 1 mM 3-isobutyl-1-methylxanthin (IBMX; Sigma cat I-7018) was dispensed per well in assay plates using a multidrop combi (Thermo Scientific) subsequently 5 μL of cell suspension was distributed to relevant wells in the assay using a multidrop dispenser. Assay plates were incubated 20 min at rt.
Detection reagents, Europium-Cryptate-labeled anti-cAMP antibody and cAMP labeled with the dye d2, are diluted in lysis buffer, provided by the manufacturer. 5 μL of each detection reagent is supplemented to each assay well using a multidrop dispenser. Assay plates are incubated in the dark for at least one h. The HTRF signal is measured using the HTRF module (excitation: 337 nm, emission A: 665 nm and emission B: 620 nm) in Pherastar FSX (BMG Labtech).
Raw data were converted to pM cAMP using the cAMP standard curve included in each run. Converted data were further analyzed in Genedata Screener (Genedata) and EC50 determinations were made from agonist dose-response curves analyzed with a curve fitting program using a 4-parameter logistic dose response equation (Equation y=A+((B−A)/1+((C/x)^D))) where A is no stimulation, B is full stimulation, C is the EC50 and D is the Hill slope). The percent effect was determined relative to a saturating concentration of a full GLP-1R agonist (GLP1(7-36)NH2 has 100% effect in this assay setup).

human GLP-1R receptor, sequence (P43220 24-463 L260F): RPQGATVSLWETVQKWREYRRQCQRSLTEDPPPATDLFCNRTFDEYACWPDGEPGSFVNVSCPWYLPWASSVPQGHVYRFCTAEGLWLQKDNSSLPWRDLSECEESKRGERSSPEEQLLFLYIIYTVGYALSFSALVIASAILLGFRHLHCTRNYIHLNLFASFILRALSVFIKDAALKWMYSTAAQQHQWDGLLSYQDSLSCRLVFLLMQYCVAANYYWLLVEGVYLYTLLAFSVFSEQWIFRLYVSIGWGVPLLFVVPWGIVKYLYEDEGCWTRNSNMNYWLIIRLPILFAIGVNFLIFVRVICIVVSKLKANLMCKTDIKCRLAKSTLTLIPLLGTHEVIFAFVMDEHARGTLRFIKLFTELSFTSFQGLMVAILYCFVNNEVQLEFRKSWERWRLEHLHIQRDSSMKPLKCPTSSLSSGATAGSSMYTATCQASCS
GLP-1R in EndoC-βH1 cells, sequence (P43220 24-463): as the sequence (P43220 24-463 L260F) above, with F237L counted along it
human phosphodiesterase-3A, sequence (Q14432 whole entry): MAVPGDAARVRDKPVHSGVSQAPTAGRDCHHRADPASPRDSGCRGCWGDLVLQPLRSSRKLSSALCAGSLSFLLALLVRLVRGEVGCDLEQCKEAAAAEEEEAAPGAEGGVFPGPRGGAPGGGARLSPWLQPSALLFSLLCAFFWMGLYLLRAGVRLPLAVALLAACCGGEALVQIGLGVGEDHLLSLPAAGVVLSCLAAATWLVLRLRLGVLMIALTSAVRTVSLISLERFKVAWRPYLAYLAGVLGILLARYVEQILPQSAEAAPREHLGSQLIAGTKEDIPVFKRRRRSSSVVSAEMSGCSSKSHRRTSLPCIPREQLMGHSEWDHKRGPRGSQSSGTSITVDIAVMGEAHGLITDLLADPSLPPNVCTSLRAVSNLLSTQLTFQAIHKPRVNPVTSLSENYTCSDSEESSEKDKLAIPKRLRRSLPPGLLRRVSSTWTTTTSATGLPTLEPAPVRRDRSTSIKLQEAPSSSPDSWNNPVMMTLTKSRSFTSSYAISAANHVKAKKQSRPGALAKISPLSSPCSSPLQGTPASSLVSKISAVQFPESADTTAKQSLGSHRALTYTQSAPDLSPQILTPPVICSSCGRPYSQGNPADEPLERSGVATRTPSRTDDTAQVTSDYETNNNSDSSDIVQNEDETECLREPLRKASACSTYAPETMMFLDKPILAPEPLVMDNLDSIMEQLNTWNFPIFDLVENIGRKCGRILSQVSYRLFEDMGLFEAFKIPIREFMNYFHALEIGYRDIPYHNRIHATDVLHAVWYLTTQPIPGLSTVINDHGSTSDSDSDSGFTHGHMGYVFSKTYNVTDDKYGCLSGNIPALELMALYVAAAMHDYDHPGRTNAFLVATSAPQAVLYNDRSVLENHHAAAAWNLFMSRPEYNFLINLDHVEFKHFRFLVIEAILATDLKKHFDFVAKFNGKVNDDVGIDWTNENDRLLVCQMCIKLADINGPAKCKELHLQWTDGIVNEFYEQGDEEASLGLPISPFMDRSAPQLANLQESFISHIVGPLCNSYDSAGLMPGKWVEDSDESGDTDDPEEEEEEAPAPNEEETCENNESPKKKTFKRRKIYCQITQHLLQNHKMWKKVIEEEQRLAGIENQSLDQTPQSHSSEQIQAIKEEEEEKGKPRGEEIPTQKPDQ

Row | IC50 [1] | EC50 [2] | EC50 (human GLP-1R receptor) | SMILES
1 | > 100000 nM | 23 nM | 100 nM | O=C(O)c1ccc2nc(CN3C[C@@H]4[C@H](C3)[C@H]4c3cccc(OCc4ccc(Cl)cc4F)n3)n(C[C@@H]3CCO3)c2c1 [Example 13, 2-(((1R,5S,6S)-6-(6-((4-Chloro-2-fluorobenzyl)oxy)pyridin-2-yl)-3-azabicyclo[3.1.0]hexan-3-yl)methyl)-1-(((S)-oxetan-2-yl)methyl)-1H-benzo[d]imidazole-6-carboxylic acid]
2 | – | 28 nM | 57 nM | O=C(O)c1cc(F)c2nc(CN3C[C@@H]4[C@H](C3)[C@H]4c3cccc(OCc4ccc(Cl)cc4F)n3)n(C[C@@H]3CCO3)c2c1 [Example 15, 2-(((1R,5S,6S)-6-(6-((4-Chloro-2-fluorobenzyl)oxy)pyridin-2-yl)-3-azabicyclo[3.1.0]hexan-3-yl)methyl)-4-fluoro-1-(((S)-oxetan-2-yl)methyl)-1H-benzo[d]imidazole-6-carboxylic acid]
3 | – | 24 nM | 47 nM | O=C(O)c1ccc2nc(CN3C[C@@H]4[C@H](C3)[C@H]4c3nc(OCc4ccc(Cl)cc4F)ccc3F)n(C[C@@H]3CCO3)c2c1 [Example 16, 2-(((1R,5S,6S)-6-(6-((4-Chloro-2-fluorobenzyl)oxy)-3-fluoropyridin-2-yl)-3-azabicyclo[3.1.0]hexan-3-yl)methyl)-1-(((S)-oxetan-2-yl)methyl)-1H-benzo[d]imidazole-6-carboxylic acid]
4 | – | 42 nM | 66 nM | COc1cc(C(=O)O)cc2c1nc(CN1C[C@@H]3[C@H](C1)[C@H]3c1nc(OCc3ccc(Cl)cc3F)ccc1Cl)n2C[C@@H]1CCO1 [Example 18, 2-(((1R,5S,6S)-6-(3-Chloro-6-((4-chloro-2-fluorobenzyl)oxy)pyridin-2-yl)-3-azabicyclo[3.1.0]hexan-3-yl)methyl)-4-methoxy-1-(((S)-oxetan-2-yl)methyl)-1H-benzo[d]imidazole-6-carboxylic acid]
5 | – | 43 nM | 62 nM | COc1cc(C(=O)O)cc2c1nc(CN1C[C@@H]3[C@H](C1)[C@H]3c1cccc(OCc3ccc(F)cc3F)n1)n2C[C@@H]1CCO1 [Example 20, 2-(((1R,5S,6S)-6-(6-((2,4-Difluorobenzyl)oxy)pyridin-2-yl)-3-azabicyclo[3.1.0]hexan-3-yl)methyl)-4-methoxy-1-(((S)-oxetan-2-yl)methyl)-1H-benzo[d]imidazole-6-carboxylic acid]
6 | – | 1100 nM | 44 nM | COc1cc(C(=O)O)cc2c1nc(CN1C[C@@H]3[C@H](C1)[C@H]3c1cccc(OCc3cc(C)ccc3F)n1)n2C[C@@H]1CCO1 [Example 21, 2-(((1R,5S,6S)-6-(6-((2-Fluoro-5-methylbenzyl)oxy)pyridin-2-yl)-3-azabicyclo[3.1.0]hexan-3-yl)methyl)-4-methoxy-1-(((S)-oxetan-2-yl)methyl)-1H-benzo[d]imidazole-6-carboxylic acid]

The next lines start with the compound.

Row | SMILES | IC50 [1] | EC50 [2] | EC50 (human GLP-1R receptor)
7 | CCn1cncc1Cn1c(CN2C[C@@H]3[C@H](C2)[C@H]3c2nc(OCc3ccc(Cl)cc3F)ccc2F)nc2c(OC)cc(C(=O)O)cc21 [Example 17, 2-(((1R,5S,6r)-6-(6-((4-Chloro-2-fluorobenzyl)oxy)-3-fluoropyridin-2-yl)-3-azabicyclo[3.1.0]hexan-3-yl)methyl)-1-((1-ethyl-1H-imidazol-5-yl)methyl)-4-methoxy-1H-benzo[d]imidazole-6-carboxylic acid] | > 100000 nM | 9.3 nM | 15 nM
8 | COc1cc(C(=O)O)cc2c1nc(CN1C[C@@H]3[C@H](C1)[C@H]3c1cccc(OCc3ccccc3OC(F)F)n1)n2C[C@@H]1CCO1 [Example 22, 2-(((1R,5S,6S)-6-(6-((2-(Difluoromethoxy)benzyl)oxy)pyridin-2-yl)-3-azabicyclo[3.1.0]hexan-3-yl)methyl)-4-methoxy-1-(((S)-oxetan-2-yl)methyl)-1H-benzo[d]imidazole-6-carboxylic acid] | – | 34 nM | 49 nM
9 | COc1cc(C(=O)O)cc2c1nc(CN1C[C@@H]3[C@H](C1)[C@H]3c1cccc(OCc3ccc(C)cc3)n1)n2C[C@@H]1CCO1 [Example 23, 4-Methoxy-2-(((1R,5S,6S)-6-(6-((4-methylbenzyl)oxy)pyridin-2-yl)-3-azabicyclo[3.1.0]hexan-3-yl)methyl)-1-(((S)-oxetan-2-yl)methyl)-1H-benzo[d]imidazole-6-carboxylic acid] | – | 31 nM | 74 nM
10 | N#Cc1ccc(COc2cccc(C3=CCN(Cc4nc5ccc(C(=O)O)cc5n4C[C@@H]4CCO4)CC3)n2)c(F)c1 [Ref Comp A, reference compound] | 4000 nM | – | –
11 | N#Cc1ccc(COc2cccc(C3CCN(Cc4nc5ccc(C(=O)O)cc5n4C[C@H]4CCO4)CC3)n2)c(F)c1 [Ref Comp B, reference compound] | 11000 nM | – | –
12 | Cc1cc(Cc2nc3ccc(C(=O)O)cc3n2C[C@@H]2CCO2)c(F)cc1-c1cccc(OCc2ccc(C#N)cc2F)n1 [Ref Comp D, reference compound] | 5000 nM | – | –
